Test results: patent US20250215029A1 (Recludix Pharma, Inc., priority 2022, published 2025)
Where two headings read alike, the source gives them in different places.

Experiments:
[1] = molecular target: T1, Recombinant STAT3 protein (STAT3 (G127-I722)) (Homo sapiens, UniProt P40763); test: STAT3 Fluorescence Polarization (FP) Assay; type: binding; details: probe 5-FAM-GpYLPQTV-NH2 2 nM, 45-minute incubation
T1 construct: Recombinant STAT3 protein (STAT3 (G127-I722))
Procedure: STAT3 Fluorescence Polarization (FP) Assay
An FP assay was developed to determine IC50 values for test substances. Recombinant STAT3 protein (STAT3 (G127-I722)) at 25 nM was combined with a fluorescently labeled, phosphotyrosine peptide probe (5-FAM-GpYLPQTV-NH2) at 2 nM in FP buffer (10 mM HEPES pH 7.4, 50 mM NaCl, 1 mM EDTA, 0.05% Tween 20.2 mM DTT). 50 μL of STAT3-probe mixture was added to serial diluted compounds in black, 96-well plates (Greiner BioOne 655076) to a final concentration of 1% DMSO. Reaction components were mixed, and FP was measured after 45-minute incubation at room temperature using a Tecan Spark multimode plate reader. FP signal (mP) was plotted against the log concentration of the test substances and IC50 values were calculated by nonlinear regression analysis using GraphPad Prism software. For STAT3 FP assay, A=≤100 nM; B=>100-1000 nM; C=>1-10 μM; and D=>10 μM.

[2] = molecular target: T2, Recombinant STAT6 protein (STAT6 (W123-T658)) (Homo sapiens, UniProt P42226); test: STAT6 Fluorescence Polarization (FP) Assay; type: binding; details: probe 5-FAM-Ap[…]-NH2 2 nM, 45-minute incubation
T2 construct: Recombinant STAT6 protein (STAT6 (W123-T658))
T2 sequence (P42226 123-658): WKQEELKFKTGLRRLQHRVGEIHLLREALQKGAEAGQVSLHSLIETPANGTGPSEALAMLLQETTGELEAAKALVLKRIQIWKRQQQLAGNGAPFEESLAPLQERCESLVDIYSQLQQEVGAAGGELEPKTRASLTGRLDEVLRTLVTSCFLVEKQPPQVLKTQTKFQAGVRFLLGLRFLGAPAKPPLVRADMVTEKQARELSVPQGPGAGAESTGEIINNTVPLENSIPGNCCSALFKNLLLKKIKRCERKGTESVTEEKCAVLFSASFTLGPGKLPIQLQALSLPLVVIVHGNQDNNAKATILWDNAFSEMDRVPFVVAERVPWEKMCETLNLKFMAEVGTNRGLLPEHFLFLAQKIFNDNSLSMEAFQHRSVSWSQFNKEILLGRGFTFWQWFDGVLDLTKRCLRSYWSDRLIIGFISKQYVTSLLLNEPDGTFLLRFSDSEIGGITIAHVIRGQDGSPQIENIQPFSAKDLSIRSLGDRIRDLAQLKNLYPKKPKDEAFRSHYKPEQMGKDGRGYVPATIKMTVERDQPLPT
Procedure: STAT6 Fluorescence Polarization (FP) Assay
An FP assay was developed to determine IC50 values for test substances. Recombinant STAT6 protein (STAT6 (W123-T658)) at 250 nM was combined with a fluorescently labeled, phosphotyrosine peptide probe (5-FAM-Ap[…]-NH2) at 2 nM in FP buffer (10 mM HEPES pH 7.4, 50 mM NaCl, 1 mM EDTA, 0.05% Tween 20, 2 mM DTT). 50 μL of STAT6-probe mixture was added to serial diluted compounds in black, 96-well plates (Greiner BioOne 655076) to a final concentration of 1% DMSO. Reaction components were mixed, and FP was measured after 45-minute incubation at room temperature using a Tecan Spark multimode plate reader. FP signal (mP) was plotted against the log concentration of the test substances and IC50 values were calculated by nonlinear regression analysis using GraphPad Prism software. For STAT6 FP assay, A=≤300 nM; B=>300-3000 nM; C=>3-30 μM; and D=>30 μM.

[3] = STAT3 25 nM, read-out: STAT3 (FP assay IC50)
[4] = STAT6 250 nM, read-out: STAT6 (FP assay IC50)
[5] = STAT3 (G127-I722) 25 nM, read-out: STAT3 (FP assay IC50 class)
[6] = STAT6 (W123-T658) 250 nM, read-out: STAT6 (FP assay IC50 class)

T1 sequence (P40763 127-722): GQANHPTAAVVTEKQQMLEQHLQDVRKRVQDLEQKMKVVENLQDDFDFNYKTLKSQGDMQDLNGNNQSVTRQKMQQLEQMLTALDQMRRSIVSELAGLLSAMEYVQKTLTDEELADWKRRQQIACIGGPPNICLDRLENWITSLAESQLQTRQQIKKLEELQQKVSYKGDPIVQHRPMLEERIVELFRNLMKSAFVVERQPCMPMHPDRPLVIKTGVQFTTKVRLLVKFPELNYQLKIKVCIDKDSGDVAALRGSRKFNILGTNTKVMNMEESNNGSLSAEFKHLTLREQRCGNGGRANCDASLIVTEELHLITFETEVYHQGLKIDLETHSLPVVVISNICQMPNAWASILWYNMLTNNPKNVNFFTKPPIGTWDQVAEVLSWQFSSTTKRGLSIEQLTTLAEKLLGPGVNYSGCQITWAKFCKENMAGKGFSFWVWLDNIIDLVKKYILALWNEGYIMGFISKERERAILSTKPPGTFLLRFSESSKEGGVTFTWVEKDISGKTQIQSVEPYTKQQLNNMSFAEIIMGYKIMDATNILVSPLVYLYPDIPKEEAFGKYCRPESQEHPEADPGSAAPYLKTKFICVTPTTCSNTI

Row | Structure (SMILES) | IC50 [1, 3] [nM] | IC50 [2, 4] [nM] | IC50 [1, 5] [nM] | IC50 [2, 6] [nM]
1 | N#C[C@@H]1CN(C(=O)[C@@H]2CC[C@@H]3CCCC[C@H](NC(=O)c4cc5cc(C(F)(F)P(=O)(O)O)ccc5s4)C(=O)N32)C[C@H]1c1cc[nH]c(=O)c1 (relative stereo) [Compound 86, ((2-(((3S,6S,10aS)-3-(rel-(trans)-3-cyano-4-(2-oxo-1,2-dihydropyridin-4-yl)pyrrolidine-1-carbonyl)-5-oxodecahydropyrrolo [1,2-a]azocin-6-yl)carbamoyl)benzo[b]thiophen-5-yl)difluoromethyl) phosphonic acid] | 100 to 1000 | ≤ 300 | – | –
2 | N#C[C@@H]1CN(C(=O)[C@@H]2CC[C@@H]3CCCC[C@H](NC(=O)c4cc5cc(C(F)(F)P(=O)(O)O)ccc5s4)C(=O)N32)C[C@H]1c1ccccc1 (relative stereo) [Compound 95, ((2-(((3S,6S,10aS)-3-(rel-(trans)-3-cyano-4-phenylpyrrolidine-1-carbonyl)-5-oxodecahydropyrrolo [1,2-a]azocin-6-yl)carbamoyl)benzo[b]thiophen-5-yl)difluoromethyl) phosphonic acid] | 100 to 1000 | ≤ 300 | – | –
3 | N#C[C@@H]1CN(C(=O)[C@@H]2CC[C@@H]3CCCC[C@H](NC(=O)c4cc5cc(C(F)(F)P(=O)(O)O)ccc5s4)C(=O)N32)C[C@H]1C1CC1 (relative stereo) [Compound 102, ((2-(((3S,6S,10aS)-3-(rel-(trans)-3-cyano-4-cyclopropyl-pyrrolidine-1-carbonyl)-5-oxodecahydropyrrolo [1,2-a]azocin-6-yl)carbamoyl)benzo[b]thiophen-5-yl)difluoromethyl) phosphonic acid] | 100 to 1000 | 300 to 3000 | – | –
4 | N#C[C@H]1[C@H](c2ccccc2)CN(C(=O)[C@@H]2CC[C@@H]3CCCC[C@H](NC(=O)c4cc5cc(C(F)P(=O)(O)O)ccc5s4)C(=O)N32)C12CC2 (relative stereo) [Compound 229, ((2-(((3S,6S,10aS)-3-((rel-trans)-7-cyano-6-phenyl-4-azaspiro[2.4]heptane-4-carbonyl)-5-oxodecahydropyrrolo[1,2-a]azocin-6-yl)carbamoyl)benzo[b]thiophen-5-yl)fluoromethyl)phosphonic acid] | – | – | 1000 to 10000 | ≤ 300
5 | COc1ncccc1[C@@H]1CN(C(=O)[C@@H]2CC[C@@H]3CCCC[C@H](NC(=O)c4cc5cc(C(F)P(=O)(O)O)ccc5s4)C(=O)N32)C[C@H]1C#N (relative stereo) [Compound 230, ((2-(((3S,6S,10aS)-3-((rel-trans)-3-cyano-4-(2-methoxypyridin-3-yl)pyrrolidine-1-carbonyl)-5-oxodecahydropyrrolo[1,2-a]azocin-6-yl)carbamoyl)benzo[b]thiophen-5-yl)fluoromethyl)phosphonic acid] | – | – | 1000 to 10000 | ≤ 300
6 | COc1cccc([C@@H]2CN(C(=O)[C@@H]3CC[C@@H]4CCCC[C@H](NC(=O)c5cc6cc(C(F)P(=O)(O)O)ccc6s5)C(=O)N43)C3(CC3)[C@H]2C#N)c1 (relative stereo) [Compound 231, ((2-(((3S,6S,10aS)-3-((rel-trans)-7-cyano-6-(3-methoxyphenyl)-4-azaspiro[2.4]heptane-4-carbonyl)-5-oxodecahydropyrrolo[1,2-a]azocin-6-yl)carbamoyl)benzo[b]thiophen-5-yl)fluoromethyl)phosphonic acid] | – | – | 1000 to 10000 | ≤ 300
7 | N#C[C@@H]1CN(C(=O)[C@@H]2CCC[C@@H]3CCC[C@H](NC(=O)c4cc5cc(C(F)P(=O)(O)O)ccc5s4)C(=O)N32)C[C@H]1c1ccccc1 (relative stereo) [Compound 551, ((2-(((4S,7S,10aS)-4-((rel-trans)-3-cyano-4-phenylpyrrolidine-1-carbonyl)-6-oxodecahydropyrido[1,2-a]azepin-7-yl)carbamoyl)benzo[b]thiophen-5-yl)fluoromethyl)phosphonic acid] | – | – | 1000 to 10000 | ≤ 300

Next, values leading:

Row | IC50 [1, 3] [nM] | IC50 [2, 4] [nM] | IC50 [1, 5] [nM] | IC50 [2, 6] [nM] | Structure (SMILES)
8 | 1000 to 10000 | ≤ 300 | – | – | N#C[C@H]1CN(C(=O)[C@@H]2CC[C@@H]3/C=C\CC[C@H](NC(=O)c4cc5cc(C(F)(F)P(=O)(O)O)ccc5s4)C(=O)N32)C[C@@H]1c1ccccc1 (relative stereo) [Compound 27, ((2-(((3S,6S,10aR,Z)-3-(rel-trans)3-cyano-4-phenylpyrrolidine-1-carbonyl)-5-oxo-1,2,3,5,6,7,8,10a-octahydropyrrolo[1,2-a]azocin-6-yl)carbamoyl)benzo[b]thiophen-5-yl) difluoromethyl) phosphonic acid]
9 | 1000 to 10000 | ≤ 300 | – | – | N#C[C@@H]1CN(C(=O)[C@@H]2C[C@@H](O)[C@@H]3CCCCC[C@H](NC(=O)c4cc5cc(C(F)(F)P(=O)(O)O)ccc5s4)C(=O)N23)C[C@H]1c1ccccc1 (relative stereo) [Compound 76, ((2-(((1R,3S,6S, 11aS)-3-(rel-(trans)-3-cyano-4-phenylpyrrolidine-1-carbonyl)-1-hydroxy-5-oxodecahydro-1H-pyrrolo[1,2-a]azonin-6-yl)carbamoyl)benzo[b]thiophen-5-yl)difluoromethyl) phosphonic acid]
10 | 100 to 1000 | ≤ 300 | – | – | N#C[C@@H]1CN(C(=O)[C@@H]2CC[C@@H]3CCCC[C@H](NC(=O)c4ccc5ccc(C(F)(F)P(=O)(O)O)cc5c4)C(=O)N32)C[C@H]1c1cc[nH]c(=O)c1 (relative stereo) [Compound 83, ((7-(((3S,6S,10aS)-3-(rel-(trans)-3-cyano-4-(2-oxo-1,2-dihydropyridin-4-yl)pyrrolidine-1-carbonyl)-5-oxodecahydropyrrolo [1,2-a]azocin-6-yl)carbamoyl)naphthalen-2-yl)difluoromethyl) phosphonic acid]
11 | 100 to 1000 | 300 to 3000 | – | – | C[C@]1(NC(=O)c2cc3cc(C(F)(F)P(=O)(O)O)ccc3s2)CCCC[C@H]2CC[C@@H](C(=O)N3C[C@H](c4ccccc4)[C@@H](C#N)C3)N2C1=O (relative stereo) [Compound 84, ((2-(((3S,6S,10aS)-3-(rel-(trans)-3-cyano-4-phenylpyrrolidine-1-carbonyl)-6-methyl-5-oxodecahydropyrrolo [1,2-a]azocin-6-yl)carbamoyl)benzo[b]thiophen-5-yl)difluoromethyl) phosphonic acid]
12 | 100 to 1000 | 300 to 3000 | – | – | N#C[C@H]1CN(C(=O)[C@@H]2CC[C@@H]3CCCC[C@H](NC(=O)c4cc5cc(C(F)(F)P(=O)(O)O)ccc5s4)C(=O)N32)C[C@H]1c1ccccc1 (relative stereo) [Compound 92, ((2-(((3S,6S,10aS)-3-(rel-(trans)-3-cyano-4-phenylpyrrolidine-1-carbonyl)-5-oxodecahydropyrrolo [1,2-a]azocin-6-yl)carbamoyl)benzo[b]thiophen-5-yl)difluoromethyl) phosphonic acid]
13 | 100 to 1000 | ≤ 300 | – | – | N#C[C@@H]1CN(C(=O)[C@@H]2CC[C@@H]3CCC[C@H](NC(=O)c4cc5cc(C(F)(F)P(=O)(O)O)ccc5s4)C(=O)N32)C[C@H]1c1ccccc1 (relative stereo) [Compound 96, ((2-(((3S,6S,9aS)-3-(rel-(trans)-3-cyano-4-phenylpyrrolidine-1-carbonyl)-5-oxooctahydro-1H-pyrrolo [1,2-a]azepin-6-yl)carbamoyl)benzo[b]thiophen-5-yl)difluoromethyl) phosphonic acid]
